Reference: ChEMBL document CHEMBL1201862, “PubChem BioAssay data set” (2004)
Where a name gives a salt, the structure may show the parent alone. Calls of active or inactive are those of the source. For most assays here, no stated cut-off is given here; in the data, actives have a measured EC50 and inactives only a lower limit.

Tests used:
[1] = target: Luciferin 4-monooxygenase (Photinus pyralis, UniProt P08659); test: inhibition of purified Photinus pyralis luciferase – biochemical, luminescence, dose response (AID 1891)
[2] = Luminescence Cell-Based Dose Confirmation HTS to Identify Inhibitors of Platelet Dense Granule Release. [Related pubchem assays: 1663 (Primary HTS), 1678 (Summary of Project)]; type: functional
[3] = microbe, parasite or virus in culture; type: functional; conditions: Mycobacterium tuberculosis
[4] = target: T1, Heat shock factor protein 1 (Mus musculus, UniProt P38532); test: enhancement of HSF1-driven luciferase signal – cell-based, NIH3T3, luminescence, dose retest, confirmation (AID 435004); type: functional;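 further: stress induced by proteasome inhibitor MG132 added 30 min after compound; luciferase reporter driven by HSF1 response element in NIH3T3 cells; actives raise luminescence as potentiators of the MG132 stress response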
T1 sequence (P38532 whole entry): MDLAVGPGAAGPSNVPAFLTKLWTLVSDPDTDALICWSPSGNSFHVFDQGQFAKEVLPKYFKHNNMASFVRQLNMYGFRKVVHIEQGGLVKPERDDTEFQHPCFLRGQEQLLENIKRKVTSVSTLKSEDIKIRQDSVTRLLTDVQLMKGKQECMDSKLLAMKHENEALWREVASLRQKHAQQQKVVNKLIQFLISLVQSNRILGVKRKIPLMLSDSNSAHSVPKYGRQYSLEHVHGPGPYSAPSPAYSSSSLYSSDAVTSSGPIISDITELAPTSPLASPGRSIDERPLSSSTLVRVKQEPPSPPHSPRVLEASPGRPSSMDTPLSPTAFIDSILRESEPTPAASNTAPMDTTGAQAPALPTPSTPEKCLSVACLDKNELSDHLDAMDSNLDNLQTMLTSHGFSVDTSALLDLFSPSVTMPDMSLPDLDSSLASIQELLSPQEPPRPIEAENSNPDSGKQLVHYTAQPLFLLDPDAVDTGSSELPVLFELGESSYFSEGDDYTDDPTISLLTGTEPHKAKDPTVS

[5] = target: T2, RNA-binding protein pos-1 (Caenorhabditis elegans, UniProt G5EF15); test: disruptors of C. elegans POS-1 RNA interaction – biochemical, fluorescence polarization, dose response (AID 1964);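 further: purified POS-1 fused to maltose binding protein made in E. coli; potency of compounds blocking POS-1 binding to fluorescent RNA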
T2 sequence (G5EF15 whole entry): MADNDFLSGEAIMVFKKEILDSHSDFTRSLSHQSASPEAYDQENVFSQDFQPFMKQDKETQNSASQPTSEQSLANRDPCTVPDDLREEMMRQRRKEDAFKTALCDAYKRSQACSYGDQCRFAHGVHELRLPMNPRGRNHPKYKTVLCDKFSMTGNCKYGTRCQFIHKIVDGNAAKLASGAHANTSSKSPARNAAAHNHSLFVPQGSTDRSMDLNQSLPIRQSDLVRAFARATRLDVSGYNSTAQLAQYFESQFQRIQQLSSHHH

[6] = target: T3, Corticotropin-releasing factor receptor 2/Corticotropin-releasing factor-binding protein (Homo sapiens, UniProt P24387+Q13324); test: activators of CRF receptor 2 with binding protein – uHTS hits, confirmation (AID 602473); type: functional; conditions: read-out: EC50_Mean
T3 sequence (Q13324 whole entry): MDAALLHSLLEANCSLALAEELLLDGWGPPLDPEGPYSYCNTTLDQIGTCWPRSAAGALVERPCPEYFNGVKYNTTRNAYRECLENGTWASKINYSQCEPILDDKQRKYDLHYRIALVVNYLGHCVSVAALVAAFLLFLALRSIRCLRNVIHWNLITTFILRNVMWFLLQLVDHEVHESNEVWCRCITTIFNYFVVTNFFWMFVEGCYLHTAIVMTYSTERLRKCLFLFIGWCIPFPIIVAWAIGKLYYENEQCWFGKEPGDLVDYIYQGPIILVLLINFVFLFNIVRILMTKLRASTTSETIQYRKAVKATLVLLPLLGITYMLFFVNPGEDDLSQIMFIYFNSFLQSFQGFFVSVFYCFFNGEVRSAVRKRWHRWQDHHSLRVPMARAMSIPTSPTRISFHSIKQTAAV
T3 sequence (P24387 whole entry): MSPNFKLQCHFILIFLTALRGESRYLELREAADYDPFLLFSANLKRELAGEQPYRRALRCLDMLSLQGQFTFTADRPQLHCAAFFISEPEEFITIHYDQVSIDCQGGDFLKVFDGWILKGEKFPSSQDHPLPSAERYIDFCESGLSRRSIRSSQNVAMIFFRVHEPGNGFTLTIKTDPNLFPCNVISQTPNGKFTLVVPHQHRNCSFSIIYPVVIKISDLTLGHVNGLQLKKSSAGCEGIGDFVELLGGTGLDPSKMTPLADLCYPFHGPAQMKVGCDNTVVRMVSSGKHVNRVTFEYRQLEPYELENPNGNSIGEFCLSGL

[7] = alpha-synuclein stem-loop luciferase translation blockers – H4 neuroglioma cells, luminescence, confirmation (AID 1988); type: functional, cell-based
[8] = Luminescence Cell-Based Dose Response HTS to Identify Inhibitors of 5'UTR Stem-Loop Driven Prion Protein mRNA Translation in H4 Neuroglioblastoma Cells. [Related pubchem assays: 1827 (Project Summary), 1813 (Primary HTS)]; type: functional
[9] = luciferase reporter signal suppression in cells – H4 neuroglioma cells, luminescence, dose response (AID 1990); type: functional, cell-based
[10] = viability of HCT116 lacking mutant beta-catenin – cell-based, human colon tumor, dose response (AID 1045); type: functional;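 further: HCT116 colon tumor cells with beta catenin knocked out; cells exposed to compound for 60 hours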
[11] = viability of PTEN-deleted HCT116 cells – cell-based, HCT116 PTEN knockout, dose response (AID 1047); type: functional;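 further: HCT116 colon tumor cells with PTEN knocked out; cells exposed to compound for 60 hours before readout; potency for loss of cell viability measured by luminescence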
[12] = Luminescence Cell-Based Dose Retest to Confirm Inhibitors of Cancer Stem Cells. [Related pubchem assays (depositor defined):AID2717, AID2721]; type: functional; conditions: Homo sapiens
[13] = viability of uninfected HEp-2 cells – cell-based, HTS, cytotoxicity control for RSV inhibitor project, dose response (AID 2410); type: functional; conditions: human respiratory syncytial virus
[14] = tested on: INS1; test: INS-1E survival protection against cytokine death – cell-based, luminescence, retest, dose response (AID 449756); type: functional; conditions: Rattus norvegicus;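 further: cell death triggered by IL-1 beta plus TNF-alpha plus IFN-gamma mixture; protective hits raise ATP signal compared with cytokine alone wells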
[15] = tested on: Streptococcus sp. 'group A'; test: Streptococcus pyogenes SK(-)GAS viability under kanamycin – luminescence, BacTiterGlo, confirmation, counter-screen for streptokinase expression inhibitor project, dose response (AID 1900); type: functional, organism-based
[16] = tested on: Streptococcus; test: GAS UMAA2166 growth inhibition – luminescence, BacTiterGlo, counter-screen for streptokinase expression inhibitor project, dose response (AID 1915); type: functional, organism-based;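 further: potency for reduction of bacterial viability or growth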
[17] = cells; type: functional
[18] = tested on: H4; test: Luminescence Cell-Based Dose Response HTS to Identify Activators of 5'UTR Stem-Loop Driven Prion Protein mRNA Translation in H4 Neuroglioblastoma Cells. [Related pubchem assays: 1829 (Project Summary), 1814 (Primary HTS)]; type: functional; conditions: Homo sapiens
[19] = Luminescence Cell-Based Dose Confirmation HTS to Identify Activators of 5'UTR Stem-Loop Driven Alpha-Synuclein mRNA Translation in H4 Neuroglioblastoma Cells. [Related pubchem assays: 1829 (Project Summary), 1814 (Primary HTS)]; type: functional
[20] = Luminescence Cell-Based Dose Response HTS to Identify Activators of Luciferase Translation or Activity in H4 […] Cells. [Related pubchem assays: 1829 (Project Summary), 1814 (Primary HTS)]; type: functional

Sequence of Luciferin 4-monooxygenase (P08659 whole entry): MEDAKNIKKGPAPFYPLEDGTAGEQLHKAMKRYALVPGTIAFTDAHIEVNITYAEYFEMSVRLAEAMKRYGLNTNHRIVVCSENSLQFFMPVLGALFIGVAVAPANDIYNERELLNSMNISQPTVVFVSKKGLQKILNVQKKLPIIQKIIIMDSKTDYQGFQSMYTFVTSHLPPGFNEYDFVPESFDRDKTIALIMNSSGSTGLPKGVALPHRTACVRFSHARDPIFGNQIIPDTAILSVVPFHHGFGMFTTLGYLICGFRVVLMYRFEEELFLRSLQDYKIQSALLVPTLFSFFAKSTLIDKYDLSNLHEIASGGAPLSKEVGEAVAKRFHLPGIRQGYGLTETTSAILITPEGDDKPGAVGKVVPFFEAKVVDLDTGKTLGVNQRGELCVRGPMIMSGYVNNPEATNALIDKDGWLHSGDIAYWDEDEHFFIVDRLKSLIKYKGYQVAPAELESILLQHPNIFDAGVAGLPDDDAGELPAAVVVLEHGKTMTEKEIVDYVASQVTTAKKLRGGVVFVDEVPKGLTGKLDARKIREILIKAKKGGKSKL

Structure (SMILES): O=C(CCNC(=O)C1CCN(S(=O)(=O)c2ccc(F)cc2)CC1)NCc1ccc(Cl)cc1
- EC50 [1]: > 112 µM (not active)
- EC50 [2]: > 112 µM (not active)

Structure (SMILES): CCC(=O)Oc1ccc(C(=O)Nc2ccc3c(c2)C(=O)N(C2CCCCC2)C3=O)cc1
- CC50 [3]: 39.9 µM (active)

Structure (SMILES): Nc1nnc(SCc2c(F)cccc2Cl)s1
- EC50 [4]: > 260 µM (inactive)

Structure (SMILES): COc1cc(S(=O)(=O)Nc2ccc(C)cc2)ccc1N/C=C1\C(=O)N(C)C(=O)C(C#N)=C1C
- EC50 [5]: 2.83 µM (active)
- EC50 [6]: > 53 µM (inactive)

Structure (SMILES): CCOc1ccc(NC(=O)C(=O)NCCN2CCN(C(=O)c3ccc(C)cc3)CC2)cc1
- EC50 [7]: 63.7 µM (active)
- EC50 [8]: 64.8 µM (active)
- EC50 [9]: 14.7 µM (active)

Structure (SMILES): COc1cc2[nH]c(=O)n(CCCCCC(=O)N3CC=C(c4ccccc4)CC3)c(=O)c2cc1OC
- EC50 [10]: 27.9 µM (active)
- EC50 [11]: 21.9 µM (active)

Structure (SMILES): CCO[C@H]1OC(C(=O)NCc2nc3ccccc3[nH]2)=C[C@@H](c2csc3ccccc23)[C@@H]1CCCO
- CC50 [3]: > 40 µM (active)

Structure (SMILES): COc1ccc(C2NC(=O)CCC2[N+](=O)[O-])c(OC)c1 (stereo not given)
- EC50 [4]: > 260 µM (inactive)

Structure (SMILES): CCc1cc2c(=O)c(-c3cnn(-c4ccccc4)c3)c(C)oc2cc1OCC(=O)Nc1ccc(F)c(F)c1
- EC50 [10]: 4.88 µM (active)
- EC50 [11]: 4.93 µM (active)

Structure (SMILES): C=CCN(C(=O)CCC(=O)O)C1CC(=O)N(c2ccc(OC)cc2)C1=O (stereo not given)
- EC50 [1]: > 112 µM (not active)
- EC50 [2]: > 112 µM (not active)

Structure (SMILES): O=S(=O)(NCCc1cn2ccccc2n1)c1ccc2c(c1)CCCC2
- EC50 [1]: > 112 µM (not active)
- EC50 [2]: > 112 µM (not active)

Structure (SMILES): CN(Cc1ccco1)c1ncnc2ccc(-c3ccc4c(ccn4C)c3)cc12
- AC50 [12]: 0.499 µM (active)
- CC50 [3]: 15.4 µM (active)

Structure (SMILES): CCOc1ccccc1C(=O)Nc1cnc(O)nc1O
- EC50 [7]: > 120 µM (not active)
- EC50 [8]: > 120 µM (not active)
- CC50 [13]: > 50 µM (active)
- EC50 [1]: > 112 µM (not active)
- EC50 [2]: 0.125 µM (active)

Structure (SMILES): Cc1cc(/C=C2\C(=O)NC(=O)N(c3ccc(Br)cc3)C2=O)c(C)n1C
- EC50 [5]: 59.7 µM (active)

Structure (SMILES): O=C(Nn1cnnc1)c1ccccc1CCc1ccccc1
- EC50 [1]: > 112 µM (not active)
- EC50 [2]: > 112 µM (not active)

Structure (SMILES): COC(=O)CC1C(=O)NCCN1C(=O)c1ccc(S(=O)(=O)N2CCOCC2)cc1 (stereo not given)
- EC50 [4]: > 260 µM (inactive)

Structure (SMILES): Cc1c(N=N/C(C#N)=C(\O)c2ccc(Cl)cc2)c(=O)n(-c2ccccc2)n1C
- EC50 [7]: 8.7 µM (active)
- EC50 [8]: 9.48 µM (active)
- AC50 [14]: 2.08 µM (active)
- EC50 [9]: 9.5 µM (active)
- EC50 [15]: 0.528 µM (active)
- EC50 [16]: 9.3 µM (active)

Structure (SMILES): Nc1ccc2cc(Br)ccc2c1
- IC50 [17]: 25.7 µM (active)

Structure (SMILES): CCn1nnc(NC(=O)c2ccc(-c3ccc(Cl)cc3)o2)n1
- IC50 [17]: > 50 µM (active)

Structure (SMILES): CC(C)(C)OC(=O)NCCCCCc1nnc(SCc2ccc(F)cc2)o1
- CC50 [3]: > 40 µM (active)

Structure (SMILES): CCC(=O)NCCc1nc2ccccc2n1Cc1ccccc1
- EC50 [1]: > 112 µM (not active)
- EC50 [2]: > 112 µM (not active)

Structure (SMILES): Nc1cccc(-c2nc3ccccc3s2)c1
- EC50 [1]: 3.81 µM (active)
- EC50 [2]: 7.77 µM (active)

Structure (SMILES): Cc1ccccc1-n1c(=O)cc(N2CCN(C(=O)c3ccco3)CC2)[nH]c1=O
- EC50 [1]: > 112 µM (not active)
- EC50 [2]: > 112 µM (not active)

Structure (SMILES): CSC1=NC(/C=C/c2ccc(Cl)cc2)=CC(C)(C)N1
- EC50 [18]: > 120 µM (not active)
- EC50 [19]: 14.3 µM (active)
- EC50 [20]: > 120 µM (not active)
- CC50 [3]: 11.1 µM (active)

Structure (SMILES): O=C(O)c1cccc(S(=O)(=O)N2CCC(n3nnc4cc(C(F)(F)F)ccc43)CC2)c1
- EC50 [4]: > 260 µM (inactive)

Structure (SMILES): CC(C)Cc1cc(C(=O)Nc2ccc(F)cc2F)no1
- IC50 [17]: 12 µM (active)

Structure (SMILES): COc1cccc(-n2c(N)c(C(=O)Nc3c(C)n(C)n(-c4ccccc4)c3=O)c3nc4ccccc4nc32)c1
- EC50 [1]: > 112 µM (not active)
- EC50 [2]: > 112 µM (not active)

Structure (SMILES): CCc1cc(C(c2ccccc2OC)N2CCOCC2)c(NC(=O)c2ccccc2)s1 (stereo not given)
- EC50 [4]: 7.34 µM (active)

Structure (SMILES): Cc1cc2oc(=O)cc(CSc3nc(N)cc(N)n3)c2cc1C
- EC50 [4]: > 260 µM (inactive)

Structure (SMILES): COc1ccc(C(=O)C2CCCN(Cc3ccc(C)s3)C2)c(OC)c1 (stereo not given)
- EC50 [4]: > 260 µM (inactive)

Structure (SMILES): NC(=O)COc1ccccc1
- EC50 [4]: > 260 µM (inactive)

Structure (SMILES): O=C(N/N=C/C=C/c1cccc([N+](=O)[O-])c1)c1ccncc1
- IC50 [17]: 34.9 µM (active)

Structure (SMILES): COc1cc(SC#N)ccc1/N=C/c1c(C)[nH]n(-c2ccc(C)c(C)c2)c1=O
- AC50 [12]: 1.41 µM (active)
- AC50 [14]: 4.24 µM (active)
- EC50 [10]: 8.18 µM (active)
- EC50 [11]: 8.81 µM (active)

Structure (SMILES): CC(/C=C/c1cccc([N+](=O)[O-])c1)=N\NC(=O)c1ccncc1
- IC50 [17]: 0.94 µM (active)

Structure (SMILES): CN(C)CCCN1c2ccccc2CCc2ccc(Cl)cc21 [CLOMIPRAMINE HYDROCHLORIDE]
- EC50 [10]: 10.3 µM (active)
- EC50 [11]: 9.89 µM (active)
